In brackets after ≈: the same amount, converted by molar mass. Where two headings read alike, the source gives them in different places. Values belong to the compound of their own block, whether it stands above or below them.
Assays:
[1] = system: Giardia lamblia; assay: in vitro growth inhibitory activity against Giardia lamblia; type: cell-based; conditions: Giardia duodenalis; concentration required to inhibit growth by 50%
Experimental: 35, pp. 2198-2202 (1991). EC50 values for test compounds, expressed in parts per million (ppm), were calculated from dose response curves and are presented in Table 4. As used herein, the terminology "EC50" means the concentration of test compound required to inhibit growth by 50% are compared to a control lacking the test compound. Metronidazole was included as a standard in the tests for comparative purposes.

[2] = system: Leishmania major; assay: in vitro growth inhibitory activity against L. major promastigotes; type: cell-based
Source text: 35, pp. 2198-2202 (1991).

[3] = system: Tetrahymena pyriformis; assay: in vitro growth inhibitory activity against the ciliate Tetrahymena pyriformis; type: cell-based, Tetrahymena pyriformis (ATCC strain 30005); conditions: read-out: EC50 Tetrahymena pyriformis
Experimental: Compounds were evaluated for in vitro growth inhibitory activity against the ciliate Tetrahymena pyriformis, which was used as an indicator organism for the Apicomplexia since by several criteria the ciliates and Apicomplexa are closely related (Edlind T. D. et al., Mol. Phylogenet. Evol. vol. 5, pp. 359-367, 1996). T. pyriformis (ATCC strain 30005) was grown in 1 ml ATCC medium 357 at 25° C. in 4 ml polyallomer culture tubes without shaking. Compounds were dissolved in dimethylsufoxide (DMSO) and added to the cultures (containing 3,000 cells/ml) such that the final DMSO concentration was 0.1-0.3%. […] Parasitol. vol. 84, pp. 355-370, 1996) and Cryptosporidium parvum (Arrowood et al., FEMS Microbial. Lett., vol. 136, pp. 245-249, 1996) were tested for comparison.

[4] = system: Toxoplasma gondii; assay: growth inhibition of T. gondii in L929 host cells ([3H]-uracil incorporation); type: cell-based; conditions: L929 host cells; for inhibition at 0.5 µg/mL / inhibition at 5 µg/mL: Toxoplasma gondii, read-out: % Inhibition
Experimental: (§1) Compounds were tested for it vitro growth inhibitory activity against Toxoplasma gondii replication in L929 (L929-ATCC CCL 1, mouse connective tissue) or HFF (human foreskin fibroblast) host cells using the [^3 H]-uracil incorporation technique as follows. Host cells were grown in 96-well flat-bottom microtiter plates at 37° C in a 5% carbon dioxide environment in modified Eagle's medium containing penicillin, streptomycin and 10% fetal equine serum. Wells containing a homogeneous confluent monolayer of host cells were infected with T. gondii tachyzoites at a ratio of 3 parasites per cell (approximately 6×10^4 tachyzoites per well containing 100 μl of medium). […] Two hours post infection, the cultures were washed to remove free parasites and the various dilutions of test compound were added. Cells were subsequently collected at 24, 48 and 72 hours. Four hours prior to each harvesting 50 Al of [^3 H]-uracil (1 μCi) was added. Cells were collected using a cell harvester and incorporated radioactivity was measured using a scintillation counter. […]

[5] = system: Toxoplasma gondii; assay: growth inhibition of T. gondii in HFF host cells ([3H]-uracil incorporation); type: cell-based; conditions: HFF host cells; for inhibition at 0.5 µg/mL / inhibition at 5 µg/mL: Toxoplasma gondii, read-out: % Inhibition
Experimental: as §1

[6] = system: Cryptosporidium parvum; assay: growth inhibitory activity against C. parvum in host MDBKF5D2 cells (immunofluorescence); type: cell-based; conditions: for % Inhibition: 48 hours
Experimental: (§2) Compounds were tested for in vitro growth inhibitory activity against C. parvum grown in host MDBKF5D2 cells and for toxicity towards the host cells as follows. […] To test for toxicity towards the host cells, the media containing test compound (200 μl) were introduced into two wells of a 96 well microtiter plate containing confluent MDBKF5D2 cell monolayers and two wells without monolayers, and incubated at 37° C. in an 8% carbon dioxide environment. After 48 hours, the tetrazolium salt MTS (Owen's solution) and phenazine methosulfate were added to each well at concentrations of 333 μg/ml and 25 μM, respectively. The plate was returned to the incubator in the dark to develop for 2 hours, then 100 μl of each supernatant was transferred to a new microtiter plate and read spectrophotometrically in a plate reader at a wavelength of 490 nm. Percent toxicity was calculated by subtracting the mean optical density (OD) of the drug supernatants from the OD of medium control supernatants (no drug), dividing by the OD of the medium control, and multiplying by 100. To test for growth inhibitory activity against C. parvum, 3×10^4 oocysts per well were incubated in mentioned concentrations of each drug at 37° C. (8% CO2) on confluent MDBKF5D2 cell monolayers in 96 well microtiter plates. After 48 hours, the level of infection in each well was determined by means of an immunofluorescence assay. Percent inhibition of growth was calculated by subtracting the mean parasite count in the wells containing test compound from the mean parasite count in the medium control wells (no test compound), dividing by the mean parasite count in the medium control wells, and multiplying by 100. Paromomycin was included in the test as a standard.

[7] = system: MDBKF5D2 cells; assay: toxicity towards MDBKF5D2 host cells (MTS); conditions: 48 hours, 2880 min
Experimental: as §2

[8] = cytotoxicity towards L929 host cells (Cell Titer 96); conditions: mouse, % Inhibition of host cell growth (values in parenthesis)
Experimental: (§3) Cytotoxicity of the test compounds towards host cells was determined using the Cell Titer 96™ it (Promega Corporation, Madison, Wis.) as follows. Cells were seeded at a concentration of 5×10^3 cells per well containing 100 μl of medium in 96-well flat-bottom microtiter plates and incubated at 37° C. in a 5% carbon dioxide environment for 4 hours. Dilutions of the test compounds prepared as described above were then added, and incubation continued for 24, 48 or 72 hours. Four hours before each of these time points the growth medium containing test compound was replaced with 100 μl of fresh medium followed by addition of 16 μl of the kit dye solution. After incubation at 37° C. for another 4 hours, 100 μl of the kit solubilization/stop solution was added to each well, the contents of the wells were mixed and the plates kept 1 hour at room temperature. The plates were then read spectrophotometrically in a plate reader at a wavelength of 570 nm. […] Atovaquone was included in the test as a standard.

[9] = cytotoxicity towards HFF host cells (Cell Titer 96); conditions: human, % Inhibition of host cell growth (values in parenthesis)
Experimental: as §3

[10] = toxicity towards MDBKF5D2 host cells (MTS); conditions: bovine, mdbkf5d2 cells, Cytotoxicity (percent toxicity)
Experimental: as §2

SMILES: CCC(C)(NC(=O)c1cc(Cl)cc(Cl)c1)C(=O)CN=C=S (stereo not shown) [Compound 8]
EC50 [1]: 0.2 µg/mL (≈ 0.579 µM) | EC50 [2]: 0.7 µg/mL (≈ 2.03 µM) | EC50 ([3]; 24 h): 0.07 µg/mL (≈ 0.203 µM)

SMILES: CCC(C)(NC(=O)c1cc(Cl)cc(Cl)c1)C(=O)CCl (stereo not shown) [Compound 13]
% Inhibition ([4]; 0.5 μg/ml, 24 hours): 11.6% | % Inhibition ([4]; 0.5 μg/ml, 48 hours): 33.2% | % Inhibition ([4]; 0.5 μg/ml, 72 hours): 0% | % Inhibition ([4]; 5.0 μg/ml, 24 hours): 11.4% | % Inhibition ([4]; 5.0 μg/ml, 48 hours): 83.9% | % Inhibition ([4]; 5.0 μg/ml, 72 hours): 88.5% | % Inhibition ([5]; 0.5 μg/ml, 24 hours): 72.3% | % Inhibition ([5]; 0.5 μg/ml, 48 hours): 28.1% | % Inhibition ([5]; 0.5 μg/ml, 72 hours): 0% | % Inhibition ([5]; 5.0 μg/ml, 24 hours): 93.0% | % Inhibition ([5]; 5.0 μg/ml, 48 hours): 98.2% | % Inhibition ([5]; 5.0 μg/ml, 72 hours): 97.8% | % Inhibition ([6]; 0.1 μM): 9.9% | % Inhibition ([6]; 1.0 μM): 12.5% | % Inhibition ([6]; 10 μM): 15.7% | inhibition at 100 µM ([6]; Cryptosporidium parvum, 48 h): 87.5% | Cytotoxicity (percent toxicity) ([7]; 0.1 μM): 0% | Cytotoxicity (percent toxicity) ([7]; 1.0 μM): 2.4% | Cytotoxicity (percent toxicity) ([7]; 10 μM): 4.3% | Cytotoxicity (percent toxicity) ([7]; 100 μM): 54.3%

SMILES: CCC(C)(NC(=O)c1cc(Br)c(N)c(Br)c1)C(=O)CCl (stereo not shown) [Compound 14]
inhibition at 0.5 µg/mL ([4]; L929, 24 h, 0.5 μg/ml, 24 hours): 29.3% | inhibition at 5 µg/mL ([4]; L929, 24 h, 5.0 μg/ml, 24 hours): 6.9% | inhibition at 0.5 µg/mL ([4]; L929, 48 h, 0.5 μg/ml, 48 hours): 79.8% | inhibition at 5 µg/mL ([4]; L929, 48 h, 5.0 μg/ml, 48 hours): 61.2% | inhibition at 0.5 µg/mL ([4]; L929, 72 h, 0.5 μg/ml, 72 hours): 84.9% | inhibition at 5 µg/mL ([4]; L929, 72 h, 5.0 μg/ml, 72 hours): 79.7% | inhibition at 0.5 µg/mL ([5]; 24 h, 0.5 μg/ml, 24 hours): 63.9% | inhibition at 5 µg/mL ([5]; 24 h, 5.0 μg/ml, 24 hours): 87.4% | inhibition at 0.5 µg/mL ([5]; 48 h, 0.5 μg/ml, 48 hours): 96.1% | inhibition at 5 µg/mL ([5]; 48 h, 5.0 μg/ml, 48 hours): 99.7% | inhibition at 0.5 µg/mL ([5]; 72 h, 0.5 μg/ml, 72 hours): 77.8% | inhibition at 5 µg/mL ([5]; 72 h, 5.0 μg/ml, 72 hours): 99.1% | inhibition at 24 h ([8]; L929, 0.5 μg/ml): 8.9% | inhibition at 48 h ([8]; L929, 0.5 μg/ml): 0% | inhibition at 72 h ([8]; L929, 0.5 μg/ml): 0% | inhibition at 24 h ([8]; L929, 5.0 μg/ml): 21.8% | inhibition at 48 h ([8]; L929, 5.0 μg/ml): 58.7% | inhibition at 72 h ([8]; L929, 5.0 μg/ml): 77.6% | inhibition at 24 h ([9]; 0.5 μg/ml): 4.1% | inhibition at 48 h ([9]; 0.5 μg/ml): 3.7% | inhibition at 72 h ([9]; 0.5 μg/ml): 0% | inhibition at 24 h ([9]; 5.0 μg/ml): 5.8% | inhibition at 48 h ([9]; 5.0 μg/ml): 31.8% | inhibition at 72 h ([9]; 5.0 μg/ml): 53.6% | inhibition at 0.1 µM ([6]; Cryptosporidium parvum, 48 h, 0.1 μM): 2.1% | inhibition at 1 µM ([6]; Cryptosporidium parvum, 48 h, 1.0 μM): 11.3% | inhibition at 10 µM ([6]; Cryptosporidium parvum, 48 h, 10 μM): 35.4% | inhibition at 100 µM ([6]; Cryptosporidium parvum, 48 h): 86.7% | cytotoxicity at 48 h, 0.1 µM ([10]; 0.1 μM): 21% | cytotoxicity at 48 h, 1 µM ([10]; 1.0 μM): 6.1% | cytotoxicity at 48 h, 10 µM ([10]; 10 μM): 3.9% | cytotoxicity at 48 h, 100 µM ([10]; 100 μM): 22.3%

EC50 [1]: 2 µg/mL (≈ 6.08 µM) | EC50 [2]: 7 µg/mL (≈ 21.3 µM)
SMILES: CCC(C)(NC(=O)c1cc(Cl)c2ncoc2c1)C(=O)CCl (stereo not shown) [Compound 16]
EC50 ([3]; 24 hours, 25° C.): 0.6 µg/mL (≈ 1.82 µM)

Source: patent US6107316A, “Method for treating protozoal infections” (priority 1998, dated 2000)
